# Measured values reported in patent US20250262225A1, “COMPOSITION FOR TREATMENT OF COVID-19 COMPRISING TAURODEOXYCHOLIC ACID OR PHARMACEUTICALLY ACCEPTABLE SALT THEREOF AS ACTIVE INGREDIENT” (SHAPERON INC., priority 2021, published 2025).
# Tests used:
# [1] = half-life estimate from non-clinical data; details: calculated based on estimates made from non-clinical data
# [2] = test system: sepsis induced by intravenous LPS in dogs; test: canine LPS-induced sepsis (systemic inflammation) model; format: in vivo, dog; details: LPS i.v.
# Experimental: After LPS administration, blood pressure was monitored every 1 hour, blood was collected at 0, 1, 3, 6, 12, 18, 24, 36, and 48 h, and the animals were sacrificed at 48 h to complete the experiment.
# The survival rate was examined by checking the number of beagle dogs that died for 48 hours in the two treatment groups in which sepsis was induced in Example <2-1>.
# Blood pressure was measured hourly for 48 hours in the two treatment groups in which sepsis was induced in Example <2-1>.
# Blood urea nitrogen (BUN) and creatinine tests were performed as renal function tests. Specifically, blood was collected hourly for 48 hours from the two treatment groups in which sepsis was induced in Example <2-1>, serum was separated, and then BUN and […] concentrations in the serum were measured.
# Blood was collected hourly for 48 hours from the two treatment groups in which sepsis was induced in Example <2-1>, serum was separated, and then the inflammatory cytokine IL-1β in the serum was measured.
# mBMDM [3] = test: TNF-α ELISA in LPS-primed mBMDM; format: cell-based, mouse; details: 10 ng/ml LPS 3 hours, then 0, 25, 100, 400 ng/ml TDCA 1 hour, FIG. 1C
# Experimental: After the time expired, the supernatant was collected, stored at −80° C., and then subjected to ELISA analysis.
# mBMDM cells = test: intracellular cAMP concentration in LPS-stimulated mBMDM (chemiluminescent analysis); format: cell-based, mouse; details: 100 ng/ml LPS and 400 ng/ml TDCA simultaneously for 30 minutes; FIG. 1A
# Experimental: Specifically, the bone marrow extracted from C57BL/6N mouse was differentiated in RPMI medium supplemented with 10% FBS, 100 U/ml penicillin streptomycin, 55 μM 2-mercaptoethanol, and 10 ng/ml recombinant mouse granulocyte-macrophage colony-stimulating factor (GM-CSF) for 7 days.
# mBMDM [4] = test: IL-1β ELISA in mBMDM activated with LPS+ATP or LPS+BzATP; format: cell-based, mouse; details: then 0, 25, 100 or 400 ng/ml TDCA, FIG. 2B
# Experimental: The bone marrow-derived macrophages of Example <1-1> were cultured in culture dishes at various densities and then collected (4×10^4, 5×10^5, 1×10^6 cells/well, 96-well, 24-well, and 12-well culture dishes, respectively). […] After the time expired, the supernatant was collected, stored at −80° C., and then subjected to ELISA analysis.
# [5] = phase 1 clinical trial: safety/tolerability and pharmacokinetics in healthy adult male volunteers; format: in vivo, human; details: healthy males
# Experimental: Forty healthy adult male volunteers in Korea were selected as subjects for the clinical trial. The clinical trial was conducted at Seoul National University Hospital (Seoul, Korea) and was targeted at people who met all of the selection criteria in [Table 1].
# A randomized, double-blind, standard treatment-based placebo-controlled trial group was assigned to evaluate drug safety/tolerability and pharmacokinetics (PK) in clinical trial subjects. As a therapeutic agent, NuSepin, an injectable clinical agent containing TDCA, was used.
# A screening test was performed on healthy male volunteers within 4 weeks (−28 d to −4 d) from the first administration date (1 d) of the study drug to select test subjects determined to be suitable for this clinical trial. […] In the morning on the study drug administration date (1 d), designated tests such as blood collection for pharmacokinetic analysis and safety evaluation were performed, and then the study drug or placebo was administered intravenously on an empty stomach. The test subjects were subjected to the clinical trial according to the set schedule and discharged from the hospital 1 day (2 d) after administration, and the subjects who completed all clinical trial schedules underwent a post-study visit between 4 d and 6 d.
# • Monitoring of adverse events such as subjective and objective symptoms • Physical examination • Vital signs • Electrocardiogram (12-Lead ECG) test • Clinical laboratory test • Local toxicity assessment • Continuous ECG and SpO2 monitoring
# Adverse events were described by dose group and treatment group based on severity and causal relationship with the stsudy drug, and the frequency and percentage of the number of test subjects with adverse events were compared and evaluated. Vital signs, electrocardiogram test, clinical laboratory tests, physical examination, monitoring of adverse events such as subjective and objective symptoms, continuous ECG and SpO2 monitoring, and the like were comprehensively reviewed, and statistical analysis was performed if necessary only on items determined to be clinically significant.
# Pharmacokinetic variables were obtained by a non-compartmental analysis method for subjects who completed this clinical trial using appropriate and validated pharmacokinetic software (for example, Phoenix WinNonlin® (Version 8.0 or higher, Pharsight, CA, USA)), and descriptive statistics (mean, standard deviation, and the like) were obtained for each dose group and treatment group.
# mBMDM [6] = test: qRT-PCR of inflammation-related factor transcription in LPS+BzATP-treated mBMDM; format: cell-based, mouse; details: 10 ng/ml LPS, 300 μM BzATP and 400 ng/ml TDCA simultaneously 1 hour, FIG. 1B
# Experimental: The bone marrow-derived macrophages of Example <1-1> were cultured in culture dishes at various densities and then collected (4×10^4, 5×10^5, 1×10^6 cells/well, 96-well, 24-well, and 12-well culture dishes, respectively). […] After the time expired, the cells were collected, stored at −80° C., and then subjected to qRT-PCR analysis.
# [7] = single i.v. NuSepin 0.1-1.6 mg/kg or placebo
substance,measurement,setting,value
sodium taurodeoxycholate [TDCA],half-life of the drug,[1],approximately 1 hour
same,survival rate,"[2]; TDCA i.v. 2, 1, 1 mg/kg at 12-hour intervals, 48 hours, half of placebo animals died, FIG. 3B",all animals administered with TDCA have survived until 48 hours
same,blood pressure (hypotensive shock),"[2]; TDCA i.v. 2, 1, 1 mg/kg, FIG. 3C",hypotensive shock tends to be inhibited
same,increase in level of BUN in the blood,"[2]; TDCA i.v. 2, 1, 1 mg/kg, FIG. 3D",suppressed
same,increase in level of creatinine in the blood,"[2]; TDCA i.v. 2, 1, 1 mg/kg, FIG. 3E",suppressed
same,IL-1β in serum,"[2]; TDCA i.v. 2, 1, 1 mg/kg, FIG. 3F",further inhibited than those in the placebo group
same,IL-8 in serum,"[2]; TDCA i.v. 2, 1, 1 mg/kg, FIG. 3G",further inhibited than those in the placebo group
same,TNF-α produced by LPS,mBMDM [3],decreased
same,cAMP concentration in cells,mBMDM cells,recovered
same,concentration of IL-1β produced by inflammation activation,mBMDM [4],decreases in proportion to the amount of TDCA used for treatment
same,PK properties,"[5]; single i.v. 0.1, 0.2, 0.4, 0.8, 1.6 mg/kg",concentration dependent manner
same,drug-related side effects,[5]; [7],one has mild IMD (immunomodulatory drugs)-related side effects
same,severity and outcome of side effects,[5]; [7],all of the side effects are not severe and recover without treatment
same,clinical trial subjects with side effects,"[5]; single i.v. NuSepin 0.1-1.6 mg/kg or placebo, 40 subjects",three of the clinical trial subjects have side effects
same,intracellular transcriptional expression of ASC,mBMDM [6],decreased
same,intracellular transcriptional expression of Caspase1,mBMDM [6],decreased
same,intracellular transcriptional expression of IL-1β,mBMDM [6],decreased
same,intracellular transcriptional expression of NLRP3,mBMDM [6],decreased
